From PMC5545217 (Nature Communications, 2017)
Entries after “also recorded” stand apart in the source; their conditions may differ.

Target: D216V ATP-PRT (Mycobacterium tuberculosis, UniProt P9WMN1, D216V)
Format: biochemical

| Structure (SMILES) | Inhibition of D216V ATP-PRT | Activation of D216V ATP-PRT |
| --- | --- | --- |
| N[C@@H](Cc1c[nH]cn1)C(=O)O [L-His, L-histidine, reference compound] | no longer inhibited by L-His; also recorded: did not change D216 V activity |  |
| N[C@@H](Cc1cccs1)C(=O)O [TIH, 3-(2-thienyl)-L-alanine] |  | still activated by TIH |
